Results published in patent US20230270809A1, “VETERINARY COMPOSITIONS FOR THE TREATMENT AND/OR PREVENTION OF PROTOZOAN DISEASES AND METHODS OF PREPARATION THEREOF” (ADIFEED SP. Z O. O., priority 2020, published 2023).

Key:
Gregarina blattarum = assay: in vitro protozoicidal test on gregarines isolated from cockroaches; format: cell-based; settings: Ringer's solution; for LD100: lethal concentration for 100% of individuals within 3 minutes
Description: For in vitro tests of antiprotozoal activity of the composition five reference organisms representing taxonomic groups to which pathogenic protozoa belong were selected, i.e: • Amoeba proteus—Chaos diffluens—a protozoan of the order Euamoebida, belonging to fifth supergroup of the Amoebozoa, living in waters. • Paramecium caudatum—a slipper animalcule representing the Ciliata orachs, living in waters. • Gregarina blattarum—gregarine isolated from cockroaches, representing the phylum Apicomplexa, living in the digestive tracts or body cavities of invertebrates. • Euglena gracilis—a protozoan living in water, representing the flagellates—Mastigophora, family Euglenaceae. • Trichomonas hominis—a protozoan living in the human colon, representing the Trichomonadidae.
The gregarines were isolated from the cockroaches and, after being placed on a watch slide, were treated with the products at different concentrations in Ringer's solution. Each sample contained ten individuals.
The compositions, negative controls, and positive controls were dissolved in an aqueous solution of polysorbate 80 (0.05%) before application to a watch slide.
Compositions I and II were then analysed for their antiprotozoal properties. […]
Individual acids, catalyst solution, essential oil and metal salt solutions were also analysed for protozoal properties. […] Observation under a fluorescence microscope with phase contrast was carried out.

Trichomonas hominis = assay: in vitro protozoicidal test on Trichomonas hominis (watch glass, microscope); format: cell-based; settings: in aqueous polysorbate 80 (0.05%); for LD100: concentration giving death of 100% of individuals within 3 minutes
Amoeba proteus = assay: in vitro protozoicidal test on Amoeba proteus (watch glass, microscope); format: cell-based; settings: in aqueous polysorbate 80 (0.05%); for LD100: concentration giving death of 100% of individuals within 3 minutes
Trypanosoma cruzi = settings: read-out: inhibitory effect on 50% of the population (IC50), Becco et al. 2012; cited from earlier work
[1] = tested on: Trypanosoma cruzi and Leishmania chagasi; settings: Escobar et al. 2010; cited from earlier work
Euglena gracilis = assay: in vitro protozoicidal test on Euglena gracilis (watch glass, microscope); format: cell-based; settings: concentration giving death of 100% of individuals within 3 minutes, in aqueous polysorbate 80 (0.05%)
Paramecium caudatum = assay: in vitro protozoicidal test on Paramecium caudatum (watch glass, microscope); format: cell-based; settings: concentration giving death of 100% of individuals within 3 minutes, in aqueous polysorbate 80 (0.05%)
[2] = concentration giving death of 50% of individuals within 3 minutes

Compound	LD50 (Gregarina blattarum; lethal concentration for 50% of individuals within 3 minutes) [%]	LD100 (Gregarina blattarum) [%]	LD50 (Trichomonas hominis; [2]) [%]	LD100 (Trichomonas hominis) [%]	LD50 (Amoeba proteus; [2]) [%]	LD100 (Amoeba proteus) [%]	IC50 (Trypanosoma cruzi) [µM]	IC50 [1] [µg/mL]	LD100 (Euglena gracilis) [%]	LD100 (Paramecium caudatum) [%]
Cc1ncc([N+](=O)[O-])n1CCO [M, metronidazole, reference compound]	0.13	0.3	0.05	0.1	0.3	0.5				
CC1CS(=O)(=O)CCN1/N=C/c1ccc([N+](=O)[O-])o1 (stereo not shown) [Nifurtimox]							6	0.3 to 0.4		
copper carbonate [Copper carbonate solution]				0.3					0.25	0.5
zinc carbonate [Zinc carbonate solution]		0.4		0.4		0.25			0.3	0.5
